Tests used:
[1] = test system: Leishmania infantum; assay: Antileishmanial activity against Leishmania infantum amastigotes infected in human THP1 cells after 96 hrs by prolong-gold antifade-reagent/DAPI staining based assay; type: functional, organism-based; settings: THP-1, 96 h
[2] = Drug uptake in ATP depleted Leishmania infantum LEM 3049 isolate promastigotes at 20 uM after 10 mins in presence of 2-deoxy-D-glucose by fluorimetric assay; type: ADME
[3] = Drug uptake in Leishmania infantum LEM 3049 isolate promastigotes at 20 uM after 10 mins at 28 degC by fluorimetric assay; type: ADME
[4] = Drug uptake in Leishmania infantum LEM 3049 isolate promastigotes at 20 uM after 10 mins at 4 degC by fluorimetric assay; type: ADME
[5] = Selectivity index, ratio of EC50 for cytotoxicity against human THP1 cells to EC50 for antileishmanial activity against Leishmania infantum amastigotes infected in human THP1 cells; type: toxicity, cell-based; settings: read-out: Ratio EC50
[6] = test system: Leishmania infantum; assay: Antileishmanial activity against Leishmania infantum promastigote after 72 hrs by MTT assay; type: functional, organism-based
[7] = test system: THP-1; assay: Cytotoxicity against human THP1 cells assessed as reduction in cell viability after 72 hrs by MTT assay; type: cell-based; settings: THP-1, 72 h

EC50 [1]: 1.25 µM
Drug uptake [2]: Active
Drug uptake [3]: Active
Drug uptake [4]: Active
Compound: O=C(CCCCCCCCCCCCCCC[P+](c1cccc2ccccc12)(c1cccc2ccccc12)c1cccc2ccccc12)c1ccc(O)cc1O.[Br-]
selectivity ratio [5]: 10.3
EC50 [6]: 3.54 µM
EC50 [7]: 12.8 µM

Source: ChEMBL document CHEMBL4334518, “Discovery and Pharmacological Studies of 4-Hydroxyphenyl-Derived Phosphonium Salts Active in a Mouse Model of Visceral Leishmaniasis” (J Med Chem, 2019)
